Data on 10 molecules can be found in ChEMBL document CHEMBL1201862, “PubChem BioAssay data set” (2004).

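All cell lines were grown in 96-well plates and treated with compound for 48 hours. GI50 marks 50% less growth.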 The source made the active and inactive calls. No stated cut-off is given here; in the data, active = GI50 up to about 1.1 µM and inactive = higher. Bounds are passed on as bounds.

What all share (experiment): inhibition of tumour cell growth, NCI panel, 48 h
Test [1] deals with EKVX.
Test [2] relates to HL-60.
Test [3] relates to Hs-578T.
Test [4] concerns K562.
For test [5], the system named is MCF7.
The subject of test [6] is MDA-MB-435.
Test [7] relates to NCI-H23.
The subject of test [8] is NCI-H460.
Test [9] concerns NCI-H522.
The test system of test [10] is NCI/ADR-RES.
Test [11] concerns SF-268.
The subject of test [12] is SF-539.
Test [13] has as its system SK-OV-3.
Test [14] relates to SN12C.
For test [15], the system named is SNB-75.
Test [16] deals with SR.
The test system of test [17] is U-251.
The subject of test [18] is UACC-257.
Test [19] deals with UACC-62.
For test [20], the system named is UO-31.

`CC(C)CC(NC(O)[BH2-][N+](C)(C)C)C(=O)NC(Cc1ccccc1)C(=O)N[C@H]1c2ccsc2/C(=N/O)[C@H]1O` (stereo partly drawn): the GI50 in test [1], in test [2], in test [3], in [4], in test [5] and in test [6] was > 100 µM (inactive) in each case. For the same molecule, the GI50 in [7], in test [8], in test [9], in test [10], in test [11] and in test [12] was > 100 µM (inactive) each time. The GI50 in test [13], in test [14], in test [15], in [16], in test [17] and in test [18] was > 100 µM (inactive) in each case. The GI50 in test [19] and in [20] was > 100 µM (inactive) throughout.
Turning to `O=C([O-])C(O)C(O)C(=O)O.[K+]` (stereo not drawn) [POTASSIUM HYDROGENTARTRATE], the GI50 in test [1], in [2], in [3], in test [4], in test [5] and in test [6] was > 100 µM (inactive) throughout. For the same molecule, the GI50 in test [8], in [9], in test [10], in test [11], in [12] and in test [13] was > 100 µM (inactive) in each case. In addition, the GI50 in test [14], in test [15], in test [16], in [17], in [18] and in test [19] was > 100 µM (inactive) throughout. Besides, in test [20], the GI50 was > 100 µM (inactive).
For `Cc1nn(C(=O)c2ccc(Cl)cc2)c2c1C(c1ccccc1)SC(=N)N2` (stereo not drawn), the GI50 in test [1], in test [2], in test [3], in test [4], in test [5] and in [6] was > 10 µM (inactive) throughout. Also, the GI50 in [7], in test [8], in test [9], in test [10], in test [11] and in test [12] was > 10 µM (inactive) in each case. The GI50 in test [13], in [14], in test [15], in test [16], in [17] and in [18] was > 10 µM (inactive) each time. Further, the GI50 in test [19] is > 10 µM (inactive).
For `O=C1CCC2(CC1CC[S+]([O-])c1ccccc1)OCCO2` (stereo not drawn), the GI50 in test [1] was > 100 µM (inactive); in [2], 89.7 µM (inactive); in test [3], > 100 µM (inactive); in [4], > 100 µM (inactive); in test [5], > 100 µM (inactive); in test [6] it was > 100 µM (inactive). In addition, the GI50 in test [7], in test [8], in test [9], in test [10], in test [11] and in test [12] was > 100 µM (inactive) throughout. The GI50 in test [13], in test [15], in test [16], in [17], in test [18] and in test [19] was > 100 µM (inactive) in each case. For the same molecule, the GI50 in [20] is > 100 µM (inactive).
Take `CC1(C)OCC(C2OC(On3nnc4ccc(Cl)cc43)C3OC(C)(C)OC23)O1` (stereo not drawn): the GI50 is > 100 µM (inactive) in test [1]; > 100 µM (inactive) in [2]; > 100 µM (inactive) in test [3]; 22.4 µM (inactive) in test [4]; > 100 µM (inactive) in [5]; > 100 µM (inactive) in [6]. For the same molecule, the GI50 in [7], in test [8], in [9], in test [10], in test [11] and in test [12] was > 100 µM (inactive) in each case. The GI50 in test [13] is > 100 µM (inactive); in test [14], > 100 µM (inactive); in [15], 98.9 µM (inactive); in test [16], > 100 µM (inactive); in test [17], > 100 µM (inactive); in test [18] it was > 100 µM (inactive). Also, in test [19], the GI50 was > 100 µM (inactive).
With `COC(NC(=O)Nc1ccc(C)cc1)(C(F)(F)F)C(F)(F)F`, the GI50 in [2] was > 100 µM (inactive); in [3], 25 µM (inactive); in test [4] it was 8.39 µM (inactive); in test [5], 41.3 µM (inactive); in test [6], 30.9 µM (inactive); in test [7] it was 30.1 µM (inactive). Also, the GI50 is 32 µM (inactive) in [8]; 22 µM (inactive) in test [9]; 25.9 µM (inactive) in test [10]; 40.4 µM (inactive) in [11]; 41.4 µM (inactive) in [12]; 26.1 µM (inactive) in test [13]. The GI50 in test [14] was 28.1 µM (inactive); in [15], 28.1 µM (inactive); in test [16], 30.9 µM (inactive); in test [17], 18.1 µM (inactive); in test [19], 10.6 µM (inactive); in test [20], 17.5 µM (inactive).
`COC(=O)c1ccc(NCC2=CC(=O)C=CC2=O)cc1`: the GI50 was 10.6 µM (inactive) in test [1]; 2.33 µM (inactive) in test [2]; 21.4 µM (inactive) in [3]; 2.69 µM (inactive) in test [4]; 14.2 µM (inactive) in test [5]; 11.3 µM (inactive) in [6]. Moreover, the GI50 in [7] is 14.5 µM (inactive); in [9], 1.7 µM (inactive); in test [10], 4.38 µM (inactive); in test [11] it was 13.7 µM (inactive); in test [12] it was 10.9 µM (inactive); in [13], 16.7 µM (inactive). For the same molecule, the GI50 was 16.3 µM (inactive) in test [15]; 5.26 µM (inactive) in test [16]; 13.6 µM (inactive) in test [17]; 12.4 µM (inactive) in test [18]; 14.6 µM (inactive) in test [19]; 7.08 µM (inactive) in test [20].
For the molecule `CCN(CCCl)c1cc(CN(C)C)cc(NC(=O)c2ccc(C(=O)Nc3ccccc3)cc2)c1`, the GI50 is 0.193 µM (active) in [2]; 0.218 µM (active) in test [3]; 0.406 µM (active) in test [4]; 0.232 µM (active) in test [5]; 0.239 µM (active) in test [6]; 0.27 µM (active) in [7]. For the same molecule, the GI50 was 0.275 µM (active) in [8]; 0.109 µM (active) in [9]; 2.63 µM (inactive) in test [10]; 0.337 µM (active) in test [11]; 0.647 µM (active) in [12]; 0.971 µM (active) in test [13]. Besides, the GI50 in [14] was 0.767 µM (active); in test [15], 1.08 µM (active); in test [16], 0.263 µM (active); in [17], 0.25 µM (active); in [18], 1.3 µM (inactive); in test [19] it was 1.29 µM (inactive). In addition, the GI50 in test [20] was 1.91 µM (inactive).
Take `CC1(C)OP(=O)(c2ccccc2)C=C1Sc1ccc([N+](=O)[O-])cc1[N+](=O)[O-]` (stereo not drawn): the GI50 is > 100 µM (inactive) in [1]; 15.9 µM (inactive) in test [2]; > 100 µM (inactive) in test [3]; 27 µM (inactive) in test [4]; 41.5 µM (inactive) in test [5]; 70 µM (inactive) in test [6]. Besides, the GI50 in [7] was 77.6 µM (inactive); in test [8] it was > 100 µM (inactive); in test [9], 19 µM (inactive); in [10] it was 80.5 µM (inactive); in test [11], 52.1 µM (inactive); in test [12], 33.7 µM (inactive). Moreover, the GI50 was > 100 µM (inactive) in test [13]; 45.9 µM (inactive) in [14]; > 100 µM (inactive) in test [15]; 17.3 µM (inactive) in [16]; 54.7 µM (inactive) in test [17]; > 100 µM (inactive) in test [18]. Moreover, the GI50 in [19] was 35 µM (inactive).
Consider `N=C(CSS(=O)(=O)O)NC1CC2CCC1C2` (stereo not drawn), for which the GI50 in [2] was > 100 µM (inactive); in test [3], > 100 µM (inactive); in test [4], 98.6 µM (inactive); in test [5] it was > 100 µM (inactive); in test [6] it was 95.5 µM (inactive); in [7] it was > 100 µM (inactive). Further, the GI50 in [8] was 43.1 µM (inactive); in test [9] it was > 100 µM (inactive); in test [10], > 100 µM (inactive); in [11], > 100 µM (inactive); in test [12], > 100 µM (inactive); in test [13], > 100 µM (inactive). For the same molecule, the GI50 in test [14] was > 100 µM (inactive); in test [15] it was > 100 µM (inactive); in test [16], > 100 µM (inactive); in test [17] it was 57.8 µM (inactive); in test [18], > 100 µM (inactive); in [19] it was > 100 µM (inactive).
